In patent US9200046B2, “Reporter system for high throughput screening of compounds and uses thereof” (priority 2011, dated 2015):
Structures can show the parent of a compound that is named as a salt. Where two headings read alike, the source gives them in different places.

Target: Nrf2-Keap1 complex (Homo sapiens, UniProt Q14145)
Assay: cell-based
Format: cell-based
Conditions: for activation at 16 µM / activation at 32 µM: 3 h; for activation at 16 µM: read-out: Activation 100 nL; for activation at 32 µM: read-out: Activation 200 nL
[1] = Table 1A, 100 nL compound, screen run at 16 and 32 μM, 3 hr
[2] = Table 1A, 200 nL compound, screen run at 16 and 32 μM, 3 hr
[3] = Table 2, 100 nL compound, screen run at 16 and 32 μM, 3 hr
[4] = Table 2, 200 nL compound, screen run at 16 and 32 μM, 3 hr

Sequence of Nrf2-Keap1 complex (Q14145 whole entry, one chain of several): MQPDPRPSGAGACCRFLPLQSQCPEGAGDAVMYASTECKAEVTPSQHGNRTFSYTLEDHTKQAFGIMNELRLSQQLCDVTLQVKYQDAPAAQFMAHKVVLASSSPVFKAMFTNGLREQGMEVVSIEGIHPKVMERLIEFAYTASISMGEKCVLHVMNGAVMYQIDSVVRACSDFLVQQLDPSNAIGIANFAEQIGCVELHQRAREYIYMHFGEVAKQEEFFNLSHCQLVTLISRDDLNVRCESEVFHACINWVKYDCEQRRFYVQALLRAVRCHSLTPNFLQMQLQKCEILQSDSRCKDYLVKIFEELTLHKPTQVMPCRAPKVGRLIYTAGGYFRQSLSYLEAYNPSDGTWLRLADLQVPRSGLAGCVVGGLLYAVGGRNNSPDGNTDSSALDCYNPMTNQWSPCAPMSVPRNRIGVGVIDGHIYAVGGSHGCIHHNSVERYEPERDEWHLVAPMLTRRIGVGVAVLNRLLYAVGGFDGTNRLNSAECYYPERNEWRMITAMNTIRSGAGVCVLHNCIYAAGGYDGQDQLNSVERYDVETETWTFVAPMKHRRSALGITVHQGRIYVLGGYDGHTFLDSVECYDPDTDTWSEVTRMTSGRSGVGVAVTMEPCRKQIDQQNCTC

Compound: C=C(NC(=O)C(=C)NC(=O)c1csc(C2=N[C@@H]3c4csc(n4)[C@H]4NC(=O)c5csc(n5)[C@H]([C@](C)(O)[C@@H](C)O)NC(=O)[C@H]5CSC(=N5)/C(=C/C)NC(=O)[C@H]([C@@H](C)O)NC(=O)c5csc(n5)[C@]3(CC2)NC(=O)[C@H](C)NC(=O)C(=C)NC(=O)[C@H](C)NC(=O)[C@H]([C@@H](C)CC)N[C@@H]2C=Cc3c([C@H](C)O)cc(nc3[C@H]2O)C(=O)O[C@@H]4C)n1)C(N)=O [THIOSTREPTON, reference compound]
- activation at 16 µM: 58%
- activation at 32 µM: 50%
- 100 nL (luminescence) [1]: 876
- 200 nL (luminescence) [2]: 1504

Compound: NCCCCNCCCN [SPERMIDINETRIHYDROCHLORIDE]
- activation at 16 µM: 72%
- activation at 32 µM: 22%
- 100 nL (luminescence) [3]: 1000
- 200 nL (luminescence) [4]: 860

Compound: COC(=O)c1cc(OC)c(=O)c2c(OC)c(OC)ccc2c1 [METHYL7-DESOXYPURPUROGALLIN-7-CARBOXYLATETRIMETHYLETHER]
- Activation 100 nL: 516%
- Activation 200 nL: 105%
- 100 nL (luminescence) [3]: 8248
- 200 nL (luminescence) [4]: 1932

Compound: CCOc1ccc(C(=O)c2ccc(OC)c(O)c2O)cc1 [2,3-DIHYDROXY-4-METHOXY-4′-ETHOXYBENZOPHENONE]
- activation at 16 µM: 117%
- activation at 32 µM: 65%
- 100 nL (luminescence) [3]: 2142
- 200 nL (luminescence) [4]: 1324

Compound: Oc1ccc2c(c1)OCC1c3cc4c(cc3OC21)OCO4 (centres unmarked) [MAACKIAIN]
- activation at 16 µM: 74%
- activation at 32 µM: 95%
- 100 nL (luminescence) [1]: 1492
- 200 nL (luminescence) [2]: 1772

Compound: COc1cc2nc(N3CCN(C(=O)c4ccco4)CC3)nc(N)c2cc1OC [PRAZOSINHYDROCHLORIDE, reference compound]
- activation at 16 µM: 87%
- activation at 32 µM: 40%

Compound: CC1(C)C2(Cl)C(Cl)C(Cl)C(Cl)(C(Cl)Cl)C1(Cl)C2Cl (centres unmarked) [STROBANE]
- activation at 16 µM: 388%
- activation at 32 µM: 235%
- 100 nL (luminescence) [3]: 5556
- 200 nL (luminescence) [4]: 5836

Compound: COc1cc(O)c(C(=O)/C=C/c2ccc(OC)c(O)c2)c(OC)c1 [2′,3-DIHYDROXY-4,4′,6′-TRIMETHOXYCHALCONE]
- activation at 16 µM: 296%
- activation at 32 µM: 10%
- 100 nL (luminescence) [3]: 5436
- 200 nL (luminescence) [4]: 544

Compound: O=C(NC(=O)c1c(F)cccc1F)Nc1cc(Cl)c(OC(F)(F)C(F)C(F)(F)F)cc1Cl (centres unmarked) [LUFENURON]
- 100 nL (luminescence): 644
- 200 nL (luminescence): 1022
- activation at 16 µM: 32%
- activation at 32 µM: 29%

Compound: COc1cc([C@@H]2c3cc4c(c(O)c3C[C@H]3COC(=O)[C@@H]32)OCO4)cc(OC)c1OC [beta-PELTATIN]
- activation at 16 µM: 62%
- activation at 32 µM: 21%
- 100 nL (luminescence) [1]: 910
- 200 nL (luminescence) [2]: 836

Compound: CC(C)c1cc2c(c(O)c1O)[C@@]1(C(=O)O)CCCC(C)(C)[C@@H]1CC2 [CARNOSICACID]
- activation at 16 µM: 372%
- activation at 32 µM: 182%
- 100 nL (luminescence) [3]: 3620
- 200 nL (luminescence) [4]: 4604

Compound: COc1ccc(/C=C/C(=O)c2ccc(O)cc2O)cc1OC [2′,4′-DIHYDROXY-3,4-DIMETHOXYCHALCONE]
- activation at 16 µM: 321%
- activation at 32 µM: 185%
- 100 nL (luminescence) [3]: 5876
- 200 nL (luminescence) [4]: 3964

Compound: COc1cccc(O)c1O [3-METHOXYCATECHOL]
- activation at 16 µM: 28%
- activation at 32 µM: -15%
- 100 nL (luminescence) [3]: 736
- 200 nL (luminescence) [4]: 116

Compound: 1(2)alpha-EPDXYDEOXYDIHYDROGEDUNIN
- Activation 100 nL: 29%
- Activation 200 nL: 25%
- 100 nL (luminescence) [3]: 752
- 200 nL (luminescence) [4]: 1028

Compound: CCc1cccc(CC)c1N(COC)C(=O)CCl [ALACHLOR]
- activation at 16 µM: 261%
- activation at 32 µM: 194%
- 100 nL (luminescence) [3]: 3852
- 200 nL (luminescence) [4]: 4892

Compound: COc1ccc(-c2oc3cc(O[C@@H]4O[C@H](CO)[C@@H](O)[C@H](O)[C@H]4O)c(OC)c(O)c3c(=O)c2OC)cc1O [CENTAUREIN]
- activation at 16 µM: 41%
- activation at 32 µM: 19%
- 100 nL (luminescence) [3]: 916
- 200 nL (luminescence) [4]: 876
